Laboratory results reported in patent US8609870B2, “Treating various disorders using TrkB agonists” (Emory University, priority 2008, dated 2013).

Assays:
Akt and Erk1/2 = Akt and Erk1/2 activation in cortical neurons from TrkB F616A knockin mice; type: cell-based, mouse
Protocol: (§1) To explore whether the neuroprotective action of an identified active compound is dependent on TrkB activation in vivo, TrkB F616A knockin mice are used. […] To further assess whether an identified active compound can mimic BDNF, cortical neurons are prepared from TrkB F616A knockin mice. The cortical neurons are pretreated for 30 minutes with either K252a Trk tyrosine kinase inhibitor (100 nM) or 1NMPP1 inhibitor (100 nM) followed by 0.5 μM identified active compound for 30 minutes.
(§2) […] inversely correlated with TrkB activation by deoxygedunin (FIG. 20, top and middle panels).

TrkB F616A knockin mice = experiment: KA-provoked apoptosis (caspase-3) in TrkB F616A knockin mice; type: in vivo, mouse
Protocol: To determine if 1NMPP1 makes neurons treated with an identified active compound vulnerable to KA-provoked neuronal cell death, TrkF616A knockin mice are fed with 1NMPP1 (25 mM) in drinking water one day prior to pharmacological reagent treatment. The next day, the mice are intraperitoneally injected with KA (25 mg/kg), or an identified active compound (5 mg/kg) 4 hours prior to KA injection. The control mice are injected with either KA or an identified active compound alone, or the mice are administered an identified active compound 4 hours before KA. After 4 days, the mice are sacrificed and the brains are homogenized and ultracentrifuged. The supernatant then is employed for SDS-PAGE and immunoblotting analysis.
as §2

mice = experiment: Forced swim test; type: in vivo, mouse
Protocol: To explore whether an identified active compound has an antidepressant effect like BDNF, a forced swim test is conducted. Adult male mice (2-3 months old) are randomly submitted, without a pre-swim, to a forced swim test of 6 minutes with immobility recorded in the last 4 minutes. The mice are injected intraperitoneally for 5 days with saline, imipramine (20 mg/kg), amitryptyline (15 mg/kg), or an identified active compound (5 mg/kg). The mice are allowed to adapt to the test room for 2 days, and the mice are placed in a clear glass cylinder with a diameter of 16 cm, half-filled with clear water at 24° C.
To investigate whether deoxygedunin mimicked BDNF in suppressing depression-like symptoms, a forced swim test after subchronic treatment of the mice for 5 days with various drugs was conducted. […] To assess whether the behavior responses by 7,8-DHF and deoxygedunin were mediated by TrkB receptor, TrkB F616A knockin mice were used. The transgenic mice were subjected to saline or 1NMPP1 treatment, respectively.

TrkB F616A = molecular target: T1, TrkB F616A (Mus musculus, UniProt P15209, F616A); experiment: TrkB phosphorylation in cortical neurons from TrkB F616A knockin mice; type: cell-based; settings: inhibitor pretreatment
T1 construct: cortical neurons from TrkB F616A knockin mice; endogenous in cells; host or cells: primary cortical neurons from TrkB F616A knock-in mice
T1 sequence (P15209 32-821 F616A): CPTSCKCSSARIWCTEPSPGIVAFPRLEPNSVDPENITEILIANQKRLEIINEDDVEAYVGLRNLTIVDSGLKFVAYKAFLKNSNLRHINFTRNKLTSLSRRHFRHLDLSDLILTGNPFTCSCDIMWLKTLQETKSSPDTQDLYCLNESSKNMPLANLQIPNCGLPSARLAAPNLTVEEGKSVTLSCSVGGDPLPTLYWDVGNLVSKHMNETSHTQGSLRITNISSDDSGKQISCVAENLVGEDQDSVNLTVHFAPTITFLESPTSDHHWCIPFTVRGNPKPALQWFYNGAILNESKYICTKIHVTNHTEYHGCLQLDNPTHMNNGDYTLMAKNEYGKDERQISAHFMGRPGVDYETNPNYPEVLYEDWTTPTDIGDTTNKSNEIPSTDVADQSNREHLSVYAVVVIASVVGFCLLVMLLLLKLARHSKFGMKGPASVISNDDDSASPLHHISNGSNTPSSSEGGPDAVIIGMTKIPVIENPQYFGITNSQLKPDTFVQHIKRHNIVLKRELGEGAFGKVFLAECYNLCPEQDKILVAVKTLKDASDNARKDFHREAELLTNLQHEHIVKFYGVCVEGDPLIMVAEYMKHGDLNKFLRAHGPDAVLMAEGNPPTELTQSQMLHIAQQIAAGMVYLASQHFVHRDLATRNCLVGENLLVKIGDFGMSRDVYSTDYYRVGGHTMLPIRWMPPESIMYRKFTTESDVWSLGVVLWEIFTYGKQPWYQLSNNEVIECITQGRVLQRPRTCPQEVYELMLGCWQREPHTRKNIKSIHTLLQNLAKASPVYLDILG
Protocol: as §1, §2

TrkB [1] = experiment: TrkB activation in cortical neurons from knockout mouse pups; type: cell-based; settings: wild-type cortical neurons (pups of TrkB +/− mice)
Protocol: (§3) To determine whether an identified active compound selectively activates TrkB receptor and prevents neuronal cell death, cortical neurons are prepared from homozygous pups of TrkB +/− mice, which are mated to the same genotype. The activation of TrkB and down stream indicators of TrkB activation, such as Capase-3, are monitored. To further assess whether an identified active compound blocks neuronal apoptosis in a TrkB dependent manner, cortical neurons are prepared from homozygous pups of […], which are mated to the same genotype. Again, the activation of TrkB and down stream indicators of TrkB activation, such as Capase-3, are monitored.
(§4) Additionally, the spontaneous caspase-3 activation in […] was suppressed by deoxygedunin.

caspase-3 = experiment: Caspase-3 activation in cortical neurons from knockout mouse pups; type: cell-based
Protocol: as §3, §4

TrkA = TrkA (Mus musculus, UniProt Q3UFB7); experiment: TrkA activation in cortical neurons from knockout mouse pups; type: cell-based; set-up: endogenous in cells; host or cells: primary cortical neurons from mouse pups; settings: cortical neurons (pups of TrkB +/− mice)
Sequence of TrkA (Q3UFB7 34-799): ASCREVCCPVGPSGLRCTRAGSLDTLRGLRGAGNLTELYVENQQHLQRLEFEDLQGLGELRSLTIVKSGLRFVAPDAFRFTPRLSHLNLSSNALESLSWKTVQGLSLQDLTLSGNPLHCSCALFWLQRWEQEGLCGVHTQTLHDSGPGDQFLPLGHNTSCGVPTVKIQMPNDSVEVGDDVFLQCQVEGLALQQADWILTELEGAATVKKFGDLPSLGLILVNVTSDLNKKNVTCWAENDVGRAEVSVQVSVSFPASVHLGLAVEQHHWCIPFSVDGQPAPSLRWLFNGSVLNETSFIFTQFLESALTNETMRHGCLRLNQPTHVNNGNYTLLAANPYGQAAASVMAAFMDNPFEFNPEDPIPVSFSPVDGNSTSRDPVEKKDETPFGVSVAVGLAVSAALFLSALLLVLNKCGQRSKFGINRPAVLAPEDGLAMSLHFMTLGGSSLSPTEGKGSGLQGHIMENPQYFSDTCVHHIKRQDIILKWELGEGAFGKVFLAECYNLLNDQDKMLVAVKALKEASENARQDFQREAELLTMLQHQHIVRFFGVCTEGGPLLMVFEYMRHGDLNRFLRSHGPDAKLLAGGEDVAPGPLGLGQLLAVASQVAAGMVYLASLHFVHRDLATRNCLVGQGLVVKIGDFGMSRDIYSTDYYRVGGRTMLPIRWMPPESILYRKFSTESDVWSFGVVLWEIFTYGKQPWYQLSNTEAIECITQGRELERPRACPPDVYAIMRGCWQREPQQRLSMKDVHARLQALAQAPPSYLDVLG

Erk1/2 and Akt = Erk1/2 and Akt activation in hippocampal neurons (Western blot); type: cell-based; settings: K252a pretreatment of hippocampal neurons
Protocol: BDNF binding to TrkB induces its autophosphorylation and, subsequently, activation of downstream kinase pathways including MAPK and PI3/Akt. To explore whether an identified active compound triggers TrkB activation, immunofluorescent staining on hippocampal neurons with anti-phospho TrkB antibody is conducted. To examine whether an identified active compound stimulates TrkB-mediated downstream signaling cascades, Western analysis is performed and the activation of Akt and Erk also is monitored. To test whether the stimulatory effect of an identified active compound is mediated through TrkB, cells are either untreated or treated with K252a, a selective inhibitor of the tyrosine kinase activity of the Trk family of neutrophin receptors. Cells treated with K252a block TrkB tyrosine phosphorylation in cells exposed to an identified active compound. To probe the time course of TrkB activation triggered by an identified active compound, hippocampal neurons are treated with an identified active compound at 500 nM and phosphorylation of Erk and Akt is determined over time by Western analysis. Whether stimulation of Erk and Akt by an identified active compound occurs in a dose dependent manner also is determined.
Both Akt and Erk1/2 were robustly activated by these molecules as well). […] The minimal required drug concentration was about 100-250 nM (see FIG. 7, right panels). […] To assess whether deoxygedunin provokes TrkB activation in the brain, mice (i.p.) were injected with a dose of 5 mg/kg for various time points. […] To establish that deoxygedunin is orally bioactive in provoking TrkB activation, two to three month old C57BL/6J mice were orally injected with various doses of 7,8-dihydroxyflavone or deoxygedunin then sacrificed 2 to 4 hours after administration. Brain lysates were prepared and analyzed by immunoblotting (see FIG. 10).

TrkB [2] = experiment: TrkB phosphorylation in hippocampal neurons (immunofluorescent staining, immunoblotting); type: cell-based; settings: K252a pretreatment of hippocampal neurons
Protocol: Unless specifically described, primary hippocampal neurons are seeded on poly-L lysine coated coverslips in a 12-well plate. After 7 days in vitro, the neurons are treated with 100 ng/ml BDNF or variety of flavone compounds (1 μM) for 30 minutes, and then are washed with PBS. Cells are fixed with 3% formaldehyde in PBS at room temperature for 10 minutes. The cells then are permeabilized and blocked by 0.4% Triton X-100 and 2% FBS in PBS at room temperature for 15 minutes, are washed with PBS three times, and are treated with anti-MAP2 (1:200) and anti-phospho-TrkB antibodies (1:500). After staining with FITC- or Rhodamine-conjugated secondary antibody, the coverslips are mounted on slides. Fluorescent images are taken by a fluorescence microscope.
BDNF binding to TrkB induces its autophosphorylation and, subsequently, activation of downstream kinase pathways including MAPK and PI3/Akt. […] To examine whether an identified active compound stimulates TrkB-mediated downstream signaling cascades, Western analysis is performed and the activation of Akt and Erk also is monitored. […] To probe the time course of TrkB activation triggered by an identified active compound, hippocampal neurons are treated with an identified active compound at 500 nM and phosphorylation of Erk and Akt is determined over time by Western analysis. […]

hippocampal neurons [3] = experiment: Oxygen-glucose deprivation (OGD) apoptosis in hippocampal neurons; type: cell-based; settings: apoptotic ratio compared to BDNF and DMSO
hippocampal neurons [4] = experiment: Glutamate-triggered apoptosis in hippocampal neurons (MR(DEVD)2 / condensed nuclei); type: cell-based; settings: 0.5 μM preincubated 30 min, then 50 μM glutamate 16 h
Protocol: To create and test reporter cell lines. In order to identify small molecules that mimic BDNF and activate TrkB, TrkB stably transfected murine cell lines are created. The T48 and T62 cell lines are created by transfecting basal forebrain SN56 cells, which express negligible TrkB, with a TrkB expression construct. To test expression of TrkB, the cells are treated with BDNF, which is predicted to result in strong phosphorylation of Trk-490 and Akt activation in comparison to the TrkA NTR stably expressing T17 cell line indicating expression of TrkB. To test resistance to apoptosis, the SN56 cells and the T48 cell line are either untreated or treated with BDNF, and then are subjected to an apoptotic assay. The apoptotic assay involves treating the cells with 0.75 μM Staurosporine for 9 hours, and 1 hour before completing the experiment, the cells are treated with 10 μM MR (DEVD)2. The cells then are fixed with 4% paraformaldehyde for 15 minutes, washed with phosphate buffered saline (PBS), and incubated with Hoechst 33342 for 10 minutes. Cover slides are washed with PBS, mounted, and then the cells are examined using a fluorescent microscope to see which cells turn red upon caspase cleavage.
To compare the apoptosis inhibitory activity of identified active compounds, the compounds are preincubated with SN56 and T48 cells, and subsequently are subjected to the fluorescent apoptotic assay as described above. To examine whether these identified active compounds promote neuronal survival, hippocampal neurons are prepared and the cultures are pretreated with the identified active compounds for 30 minutes, followed by treatment with 50 μM glutamate for 16 hours.
Using a cell-based screen as described above in Example 1 (based on the anti-apoptotic action of TrkB signaling) and the chemical library from the Spectrum Collection (described above), 66 positive hits were generated, four of which were gedunin derivatives. […] In this assay, neurons with both cleaved caspase (MR (DEVD)2 red cells) and condensed nuclei (DAPI staining) were counted as apoptotic cells. […]

| blockade of glutamate-provoked caspase-3 activation (caspase-3; TrkB −/− cortical neurons) | blockade of glutamate-provoked caspase-3 activation (caspase-3; wild-type cortical neurons) | TrkA activation (TrkA) | SMILES | blockade of BDNF-triggered Akt and Erk1/2 activation (Akt and Erk1/2) | blockade of BDNF-provoked TrkB phosphorylation (TrkB F616A) | blockade of deoxygedunin provoked TrkB phosphorylation (TrkB F616A) | TrkB activation (TrkB [1]) | also measured |
| --- | --- | --- | --- | --- | --- | --- | --- | --- |
| not TrkB −/− neurons | substantially blocked | not TrkA | O=c1cc(-c2ccccc2)oc2c(O)c(O)ccc12 [7,8-dihydroxyflavone] |  |  |  | selectively activated TrkB |  |
|  | failed to block caspase-3 activation | not imipramine | CN(C)CCCN1c2ccccc2CCc2ccccc21 [imipramine, reference compound] |  |  |  | not imipramine | swimming immobility (mice; mice, subchronic treatment 5 days, imipramine 20 mg/kg, deoxygedunin 5 mg/kg): significantly decreased |

The next lines start with the compound.

| SMILES | blockade of glutamate-provoked caspase-3 activation (caspase-3; TrkB −/− cortical neurons) | blockade of glutamate-provoked caspase-3 activation (caspase-3; wild-type cortical neurons) | TrkA activation (TrkA) | blockade of BDNF-triggered Akt and Erk1/2 activation (Akt and Erk1/2) | blockade of BDNF-provoked TrkB phosphorylation (TrkB F616A) | blockade of deoxygedunin provoked TrkB phosphorylation (TrkB F616A) | TrkB activation (TrkB [1]) | also measured |
| --- | --- | --- | --- | --- | --- | --- | --- | --- |
| CC(C)(C)n1nc(Cc2cccc3ccccc23)c2c(N)ncnc21 [1NMPP1] |  |  |  | blocked BDNF-triggered Akt and Erk1/2 activation | selectively blocked | selectively blocked |  | effect on Akt and Erk1/2 activation by deoxygedunin (Akt and Erk1/2): diminished Akt and Erk1/2 activation; effect of 1NMPP1 pretreatment on deoxygedunin's protective effect (TrkB F616A knockin mice; F616A mice, KA): diminished deoxygedunin's protective effect; effect of 1NMPP1 pretreatment on KA-provoked apoptosis (TrkB F616A knockin mice; TrkB F616A mice): elevated KA-provoked apoptosis; immobility time, 1NMPP1-treated versus saline (mice; TrkB F616A knockin mice, no test drug): No significant difference |
| COC(=O)[C@@]1(O)C[C@H]2O[C@]1(C)n1c3ccccc3c3c4c(c5c6ccccc6n2c5c31)C(=O)NC4 [K252a] |  |  |  | not K252a | not K252a | not K252a |  | blockade of deoxygedunin-provoked downstream Akt and MAPK signalings (Erk1/2 and Akt): blocked; blockade of deoxygedunin-triggered TrkB activation (TrkB [2]): substantially blocked |
| CN(C)CCC=C1c2ccccc2CCc2ccccc21 [amitriptyline] | weakly suppressed caspase-3 activation | weakly suppressed caspase-3 activation | activated both TrkA and TrkB |  |  |  | activated both TrkA and TrkB |  |
| CC(=O)O[C@@H]1CC2C(C)(C)C(=O)CC[C@]2(C)C2CC[C@]3(C)C(=CC(=O)O[C@H]3c3ccoc3)[C@@]21C (some centres unmarked) [dihydrodeoxygedunin] |  |  |  |  |  |  |  | protective effects on hippocampal neurons under OGD (hippocampal neurons [3]): potent protective effects; protective effect (apoptosis inhibitory activity) (hippocampal neurons [4]): protective effect |
